Measurements from patent US20230181614A1, “ADMINISTRATION OF CITICOLINE TO IMPROVE COGNITIVE PERFORMANCE, ATTENTIONAL PERFORMANCE, AND MOTOR FUNCTION” (KYOWA HAKKO BIO CO., LTD., priority 2014, published 2023).

What was measured:
[1] = system: Healthy subjects, ages 13-18; assay: Finger Tap Test (motor speed and control); format: in vivo, human; conditions: for V3-V1 Finger Tap Test Mean Dominant Hand, Mean / V3-V1 Finger Tap Test Mean Non-Dominant Hand, Mean: Visit difference score; for Finger Tap Test Mean Dominant Hand V3, Mean / Finger Tap Test Mean Non-Dominant Hand V3, Mean: Visit 3; for Finger Tap Test Mean Dominant Hand, Mean / Finger Tap Test Mean Non-Dominant Hand, Mean: 250 mg/day
Description: The citicoline-treated group (N=51) were administered 250 mg/day (N=24) or 500 mg/day (N=27). Three finger tap tests were administered over a period of 28 days to measure motor speed and control. Results are expressed as mean ± SD. Statistical analysis was performed using Student’s t test. The p<0.05 was considered statistically significant. Study participants were screened by telephone prior to study enrollment. Healthy subjects, ages 13-18, with no significant medical conditions and no history of co-morbid psychiatric disorder, current Axis I or II diagnosis, or previous participation in a pharmacotherapeutic trial, were selected. Use of any psychotropic medication or any previous head injury resulting in loss of consciousness for 5 or more minutes were used as exclusion criteria. While no participant met criteria for a neuropsychiatric disorder at enrollment, clinical assessments were still completed throughout the study to evaluate changes in mood state. In addition, self-reports of sleep habits, lifestyle, and exercise routines were also administered at baseline as well as at each study visit to assess changes in health habits during study participation. Following the completion of Visit 1 assessment, participants were given their 28-day supply of citicoline (250 mg or 500 mg) or placebo, which was randomly assigned. They were instructed to take one capsule a day every day for the next 28 days. Visit 2 occurred fourteen days after Visit 1. At Visit 2, the remaining study pills were counted and participant dosage calendars were checked to ensure compliance with the protocol. Additional neuropsychological measures and clinical assessments were administered during this visit. Participants returned for Visit 3 fourteen days later, on the 28th day of their study participation. The pill bottle and the dosage calendar were collected from each participant. Urine and blood were again obtained. Participants also participated in similar clinical and neuropsychological testing and clinical measures that were given during visit 1. The finger tap test is used to measure motor speed and control. It is a common assessment measure administered by neuropsychologists to detect cognitive impairment. During the finger tap test, the participant is instructed to use his/her index finger to press a lever attached to a mechanical counter as many times as s/he can within the designated time period. The participant is instructed to move only their index finger, not the entire hand. The same process is completed using the index finger of the dominant and non-dominant hand. The finger tap test was administered at each of the three visits.

[2] = system: Healthy subjects, ages 13-18; assay: Trail Making Test; format: in vivo, human; set-up: Trail Making B V1 (Mean) / Trail Making B V3 (Mean) / Trail Making B-A V1 (Mean) / Trail Making B-A V3 (Mean) / V3-V1 Trail Making B (Mean) / V3-V1 Trail Making B-A (Mean): unit not given here; conditions: for Trail Making A V1 (Mean) / Trail Making B V1 (Mean) / Trail Making B-A V1 (Mean): Visit 1; for Trail Making A V3 (Mean) / Trail Making B V3 (Mean) / Trail Making B-A V3 (Mean): Visit 3; for V3-V1 Trail Making A (Mean) / V3-V1 Trail Making B (Mean) / V3-V1 Trail Making B-A (Mean): visit difference score V3-V1
From the text: Study participants were screened by telephone prior to study enrollment. Healthy subjects, ages 13-18, with no significant medical conditions and no history of co-morbid psychiatric disorder, current Axis I or II diagnosis, or previous participation in a pharmacotherapeutic trial, were selected. Use of any psychotropic medication or any previous head injury resulting in loss of consciousness for 5 or more minutes were used as exclusion criteria. While no participant met criteria for a neuropsychiatric disorder at enrollment, clinical assessments were still completed throughout the study to evaluate changes in mood state. In addition, self-reports of sleep habits, lifestyle, and exercise routines were also administered at baseline as well as at each study visit to assess changes in health habits during study participation.
Following the completion of Visit 1 assessment, participants were given their 28-day supply of citicoline (250 mg or 500 mg) or placebo, which was randomly assigned. They were instructed to take one capsule a day every day for the next 28 days.
Visit 2 occurred fourteen days after Visit 1. At Visit 2, the remaining study pills were counted and participant dosage calendars were checked to ensure compliance with the protocol. Additional neuropsychological measures and clinical assessments were administered during this visit.
Participants returned for Visit 3 fourteen days later, on the 28th day of their study participation. The pill bottle and the dosage calendar were collected from each participant. Urine and blood were again obtained. Participants also participated in similar clinical and neuropsychological testing and clinical measures that were given during visit 1.
The Trail Making Test is designed to measure visual conceptual and visuomotor tracking, as well as maintenance of cognitive set. On Trial A the participant must draw lines to connect consecutively numbered circles on one work sheet (1-2-3-4 etc.). For Part B they must connect numbered and lettered circles by alternating between the two sequences (i.e., 1-A-2-B etc.). Part B is the more sensitive of the two tests -- particularly to frontal-lobe dysfunction -- as scores on this section are indicative of the participant’s ability to shift sets (numeric to alphabetical order) and process concurrent stimuli. This test was administered on all three visits.

C[N+](C)(C)CCOP(=O)(O)OP(=O)([O-])OC[C@H]1O[C@@H](n2ccc(N)nc2=O)[C@H](O)[C@@H]1O [citicoline, Cytidine 5′-diphosphocholine]
V3-V1 Finger Tap Test Mean Dominant Hand, Mean ([1]; 250 mg/day group): 4.87
V3-V1 Finger Tap Test Mean Non-Dominant Hand, Mean ([1]; 250 mg/day group): 2.49
Finger Tap Test Mean Dominant Hand V3, Mean ([1]; 250 mg/day group): 51.59
Finger Tap Test Mean Non-Dominant Hand V3, Mean ([1]; 250 mg/day group): 47.01
Finger Tap Test Mean Dominant Hand, Mean ([1]; V1 (baseline)): 46.72
Finger Tap Test Mean Non-Dominant Hand, Mean ([1]; V1 (baseline)): 44.52
Finger Tap Test Mean Dominant Hand, Mean ([1]; V3 (day 28)): 51.59
Finger Tap Test Mean Non-Dominant Hand, Mean ([1]; V3 (day 28)): 47.01
Finger Tap Test Mean Dominant Hand V1, Mean ([1]; 500 mg/day group, Visit 1): 49.44
Finger Tap Test Mean Non-Dominant Hand V1, Mean ([1]; 500 mg/day group, Visit 1): 44.89
V3-V1 Finger Tap Test Mean Dominant Hand, Mean ([1]; 500 mg/day group): 2.61
V3-V1 Finger Tap Test Mean Non-Dominant Hand, Mean ([1]; 500 mg/day group): 2.21
Finger Tap Test Mean Dominant Hand V3, Mean ([1]; 500 mg/day group): 52.05
Finger Tap Test Mean Non-Dominant Hand V3, Mean ([1]; 500 mg/day group): 47.10
Trail Making A V1 (Mean) ([2]; 250 mg/day group): 11.16
Trail Making B V1 (Mean) ([2]; 250 mg/day group): 29.15
Trail Making B-A V1 (Mean) ([2]; 250 mg/day group): 17.99
Trail Making A V3 (Mean) ([2]; 250 mg/day group): 9.37
Trail Making B V3 (Mean) ([2]; 250 mg/day group): 18.40
Trail Making B-A V3 (Mean) ([2]; 250 mg/day group): 9.00
V3-V1 Trail Making A (Mean) ([2]; 250 mg/day group): -1.80
V3-V1 Trail Making B (Mean) ([2]; 250 mg/day group): -10.75
V3-V1 Trail Making B-A (Mean) ([2]; 250 mg/day group): -8.99
Trail Making A V1 (Mean) ([2]; 500 mg/day group): 12.89
Trail Making B V1 (Mean) ([2]; 500 mg/day group): 28.60
Trail Making B-A V1 (Mean) ([2]; 500 mg/day group): 15.71
Trail Making A V3 (Mean) ([2]; 500 mg/day group): 9.28
Trail Making B V3 (Mean) ([2]; 500 mg/day group): 23.02
Trail Making B-A V3 (Mean) ([2]; 500 mg/day group): 13.73
V3-V1 Trail Making A (Mean) ([2]; 500 mg/day group): -3.60
V3-V1 Trail Making B (Mean) ([2]; 500 mg/day group): -5.58
V3-V1 Trail Making B-A (Mean) ([2]; 500 mg/day group): -1.98
